Paper PMC12957798, “Adaptation of plateau frog peptide: From antimicrobial to angiogenic and proliferative functions” (Journal of Advanced Research, 2025)
Entries after “also recorded” stand apart in the source; their conditions may differ.

Legend:
[1] = system: Acinetobacter baumannii (ATCC 19606), Candida auris (ATCC 10231), Pseudomonas aeruginosa (ATCC 27853) and Staphylococcus aureus (ATCC 6538); experiment: Disk diffusion (paper-disc agar-diffusion) antimicrobial test; format: cell-based; settings: SC17-2 10 mg/mL, 1 mL on filter paper, 24 h, 37 °C, b51 statement also rests on the MIC test
Protocol: Disk diffusion and broth microdilution tests were selected as the standard method for screening the antimicrobial activity of SC17-2 [58]. The experiments were conducted utilising the disk diffusion test, whereby the following strains were examined: Acinetobacter baumannii (ATCC 19606), Candida auris (ATCC 10231), Pseudomonas aeruginosa (ATCC 27853) and Staphylococcus aureus (ATCC 6538). The concentration of bacterial suspension was then adjusted to 1 × 10^5 CFU/mL with saline, after which it was set aside. Separate plates containing bacterial agar were prepared: MH agar was utilised for the isolation of bacterial samples, while Sartorius agar was employed for the isolation of fungal samples. The suspensions containing the aforementioned microorganisms were then spread on the designated plates at a rate of 1:1000. A sterile filter paper was used to dispense 1 mL of SC17-2 (10 mg/mL), with equal amounts of PBS and Vancomycin/Colistin serving as controls. The plates were then subjected to the appropriate temperature (24 h at 37 °C) and subsequently observed under a camera to ascertain the results.

HaCaT cells = experiment: In vitro scratch wound healing (migration) assay, HaCaT; format: cell-based, Human; settings: SC17-2 concentrations exceeding 10 μg/mL, 16 h
HSF cells = experiment: In vitro wound healing (migration) assay, HSF; format: cell-based, Human; settings: SC17-2 concentrations exceeding 10 μg/mL, 16 h
BALB/c mice = experiment: Mouse full-thickness skin wound healing; format: in vivo; settings: for wound area: 20 μL daily on wound, relative to day 1, mean ± SEM, n = 7
Protocol: Mice were anaesthetised with sodium pentobarbital 2 % by intraperitoneal injection (0.1 mL/20 g mouse body weight), and after anaesthesia, hair was removed from the back using depilatory cream and power scissors, and circular full-thickness skin wounds of the same diameter were marked and created on the back of each mouse using circular stamps and red sealant. The mouse wounds were then covered and infiltrated daily with 20 μL of different concentrations of SC17-2 or 20 ng/mL VEGF, and an equal volume of saline was used in the control group. The mice were anaesthetised by isoflurane nebulisation (concentration 2 %) every two days and then placed under an optical camera to photograph the effect of the wound area.
Sodium pentobarbital (2 %) was utilised for the anaesthetisation of mice by intraperitoneal injection (0.1 mL/20 g of mouse body weight). Subsequent to the induction of anaesthesia, the dorsal hair was removed using depilatory creams and electric scissors. Thereafter, circular full skin wounds of the same diameter were marked and created on the back of each mouse using circular stamps and red stencils. Mouse wounds were then covered and infiltrated daily with 20 μL of different concentrations of SC17-2 or 20 ng/mL of VEGF, and an equal volume of saline was used in the control group. Mice were anaesthetised every two days using isoflurane nebulisation followed by anaesthesia (concentration 2 %), after which they were placed under an optical camera to photograph the effect of wound area. After 13 days of treatment, mice were anaesthetised using isoflurane nebulisation followed by injection of an overdose of sodium pentobarbital to euthanise the mice (200 mg/kg). The wounds and their surrounding tissues were then excised for histopathological evaluation (Masson and H&E staining) and analysed by Enface immunofluorescence staining.

CD31 = CD31 immunofluorescence of mouse wound sections (angiogenesis); format: in vivo; settings: 13 days
Protocol: Use scissors to remove the tissue around the wound, put the tissue into 4 % paraformaldehyde solution, put the tissue in 4 °C for 24 h, use a tissue embedding machine for embedding, use a rotary slicer to section the tissue, put the section into environmentally friendly dewaxing solution to dewax for 3 times, 10 min each time, then use anhydrous ethanol to treat the section for 3 times, 5 min each time, rinse with distilled water and then repair the section by EDTA antigen repair solution. The slides were then incubated overnight at 4 °C with Anti-CD31 Mouse mAb as primary antibody and at room temperature for 50 min, protected from light, in PBS (pH 7.4), shaken and washed 3 times for 5 min each time on a decolourising shaker. Incubate at room temperature for 10 min. Images were captured using a scanner (Pannoramic MIDI), and graphics were processed using imageJ. The results were calculated as follows: relative staining area of blood vessels = An/average (Ac), An indicates the fluorescence staining area of CD31 obtained from the current sample by ImageJ statistics, […], and Ac is the fluorescence staining area of CD31 of all control samples.
ImageJ was used to quantify the percentage of stained area for Masson and the percentage of fluorescent area for CD31. All data were analysed by GraphPad Prism 9.5 software. Data were expressed as mean ± SEM. Comparisons between multiple groups were performed by using one-way analysis of variance (ANOVA) and Tukey's multiple comparison test. Differences between groups were commonly tested by ANOVA, P < 0.05 was considered statistically significant.

p-ERK/ERK = experiment: Western blot p-ERK/ERK in HaCaT; format: cell-based, Human; settings: SC17-2 20 μg/mL, 24 h (16 h elsewhere in the source), n = 3
Protocol: HaCaT was inoculated in 12-well plates (2 × 10^5 cells/well) and cultured for 24 h. Afterwards, HaCaT cells were treated with equal amounts of VEGF, SC17-2, and PBS for 16 h. Cells were washed with PBS, after which the samples were collected and added to 1 mL of RIPA lysate containing protease inhibitors and phosphatase inhibitors and placed on ice for 30 min. Allowed to be after sufficient lysis, the supernatant was centrifuged and collected to determine the protein concentration using a nanodrop, followed by the addition of SDS sampling buffer and heating at 95 °C for 10 min. Samples were loaded and run on a gel block based on the determined sample concentration, and then electrotransferred onto a 0.45 μm PVDF membrane. […] After washing three times with TBST, proteins were visualised and scanned by enhanced chemiluminescence using the ChemiDoc XRS imaging system (Bio-Rad, Hercules, CA, USA).

EGF mRNA = experiment: qPCR EGF mRNA in HaCaT; format: cell-based, Human; settings: SC17-2 20 μg/mL, n = 6
Protocol: HaCaT cells were treated as above, washed twice with PBS and lysed using Trizol for 5 min, after which 200 μL of chloroform was added and shaken vigorously for 30 s. The cells were centrifuged for 15 min to separate the upper and lower layers (12,500 g, 4 °C). The supernatant was vortexed with an equal amount of isopropanol and left to stand for 10 min, and then centrifuged again under the same conditions to retain only the white precipitate. 500 μL of 75 % ethanol was added and centrifuged (12000 rpm, 4 °C, 10 min) and the operation was repeated twice. Afterwards, DEPC was used for dissolution and the concentration was determined by nanodrop. One-step reverse transcription to DNA was performed using 5 × MIX, after which primers and 2 × MIX were added and placed. qPCR was performed (LightCycler96, F. Hoffmann-La Roche, Swiss).

SFMPLSIPIMCKMLSKC [SC17-2, peptide of the pleskein family from the skin transcriptome of the frog Nanorana parkeri, made by solid-phase synthesis]
antimicrobial (bacteriostatic) activity [1]: no bacteriostatic activity; also recorded: does not appear to have antimicrobial activity | HaCaT migration (HaCaT cells): notable enhancement | HSF migration (HSF cells): notable enhancement | reduction of wound area vs control, significance (BALB/c mice; SC17-2 20 μg/mL, at times other than day 9): significantly promote the reduction of wound area | reduction of wound area vs control on day 9 (BALB/c mice; SC17-2 20 μg/mL, day 9): non-significant difference | final reduction in wound area, dose dependence (BALB/c mice; after 13 days of treatment): metrologically dependent on SC17-2 | wound area (BALB/c mice; day 3, SC17-2 20 μg/mL): 77.84 ± 3.34% | wound area (BALB/c mice; day 5, SC17-2 20 μg/mL): 54.43 ± 2.53% | wound area compared with VEGF (BALB/c mice; day 13, SC17-2 20 μg/mL vs VEGF): significantly smaller | wound area (BALB/c mice; day 13, SC17-2 20 μg/mL): 2.65 ± 0.72% | wound area reduction, ratio to saline-treated control (BALB/c mice; days 3 and 5, SC17-2 20 μg/mL): ~1.3 fold | number of blood vessels in wounds, dose dependence (CD31; CD31 images): number of blood vessels in the wounds increased with the increase of SC17-2 concentration | blood vessel formation (CD31 staining) (CD31; SC17-2 5 μg/mL, n = 9): promoted blood vessel formation | proangiogenic effect compared with VEGF (CD31 staining) (CD31; SC17-2 10 and 20 μg/mL, n = 9): more pronounced than that of VEGF | ERK phosphorylation (p-ERK/ERK): significantly increased ERK phosphorylation | mRNA expression of EGF (EGF mRNA): significantly elevated
